Data as given in patent US20060025566A1, “Macrocyclic modulators of the ghrelin receptor” (Tranzyme Pharma Inc., priority 2003, published 2006).
Read-outs that look alike come from different tables or passages of the source.

How the values were obtained:
[1] = target: T1, human growth hormone secretagogue receptor (hGHS-R1a) (Homo sapiens, UniProt Q92847); experiment: Competitive radioligand binding assay (ghrelin receptor), [125I]-ghrelin displacement on GHS-R/HEK 293 membranes; details: read-out: Ki
T1 construct: purchased PerkinElmer BioSignal #RBHGHSM, lot#1887; host or cells: HEK-293, stably transfected (membranes)

[2] = target: human ghrelin receptor (hGHS-R1a) (Homo sapiens, UniProt Q92847); experiment: Aequorin functional assay (ghrelin receptor), CHO-K1 cells co-expressing Gα16 and aequorin; format: cell-based; details: functional (agonist) activity, standard method; TFA salts unless otherwise noted
From the text: Coelenterazine (Molecular Probes, Leiden, The Netherlands). […] Compound Handling
• 1. […] Key Aspects of Method • 1. […] Results

[3] = target: motilin receptor (Homo sapiens, UniProt O43193); experiment: Selectivity for the ghrelin receptor versus the motilin receptor; format: binding
From the text: The level of agonist activity and selectivity for representative compounds of the invention are shown below in Table 4.

[4] = binding activity at the human ghrelin receptor, [125I]-ghrelin displacement
[5] = binding activity, standard method, TFA salts unless otherwise noted
[6] = binding activity at the human ghrelin receptor, [125I]-ghrelin competition, GHS-R/HEK 293 membranes

Chain of motilin receptor (O43193 whole entry): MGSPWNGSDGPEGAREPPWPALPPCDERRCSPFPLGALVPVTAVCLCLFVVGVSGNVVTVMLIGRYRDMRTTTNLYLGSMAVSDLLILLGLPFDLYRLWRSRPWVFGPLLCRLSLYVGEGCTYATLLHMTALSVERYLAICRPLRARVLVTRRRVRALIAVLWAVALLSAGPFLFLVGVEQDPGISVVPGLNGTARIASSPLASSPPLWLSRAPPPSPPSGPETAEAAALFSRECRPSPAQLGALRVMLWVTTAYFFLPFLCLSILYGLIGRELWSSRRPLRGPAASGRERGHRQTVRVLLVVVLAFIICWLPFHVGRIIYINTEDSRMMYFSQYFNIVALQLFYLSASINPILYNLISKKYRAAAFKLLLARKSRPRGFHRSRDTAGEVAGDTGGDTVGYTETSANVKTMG
Chain of human ghrelin receptor (hGHS-R1a) (Q92847 whole entry): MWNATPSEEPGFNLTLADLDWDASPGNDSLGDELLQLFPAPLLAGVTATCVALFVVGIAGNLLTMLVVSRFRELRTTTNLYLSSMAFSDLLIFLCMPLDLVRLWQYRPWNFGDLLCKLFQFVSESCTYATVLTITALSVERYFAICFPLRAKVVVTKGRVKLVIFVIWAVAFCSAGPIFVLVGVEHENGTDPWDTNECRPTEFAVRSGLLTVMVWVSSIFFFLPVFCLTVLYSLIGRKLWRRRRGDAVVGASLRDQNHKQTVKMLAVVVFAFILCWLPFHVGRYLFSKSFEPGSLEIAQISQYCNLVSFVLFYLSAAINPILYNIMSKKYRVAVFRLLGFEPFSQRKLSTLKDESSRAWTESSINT
T1 sequence (Q92847 whole entry): as above

SMILES	Ki [1, 5] [nM]	Selectivity [3]	other results
CC1C(=O)NC(Cc2ccc(F)cc2)C(=O)NCCCc2ncccc2OCCNC(C2CC2)C(=O)N1C (single isomer, unassigned) [306a]	10 to 100	714/1	Ki [1, 4]: 10 to 100 nM; EC50 [2]: 1 to 100 nM
CC1C(=O)NC(Cc2ccc(F)cc2)C(=O)NCC2CC2c2ccccc2OCCNC(C2CC2)C(=O)N1C (single isomer, unassigned) [389a]	10 to 100	450/1	EC50 [2]: 100 to 1000 nM
CC(C)C[C@@H]1NCCOc2ccccc2C=CCNC(=O)[C@H](Cc2ccccc2Cl)NC(=O)C2(CCCC2)NC1=O (stereo in doubt) [compound 20]	0.1 to 10	1044/1	Ki [1, 6]: 0.1 to 10 nM; EC50 [2]: 1 to 100 nM
CCCCC1NCCOc2ccccc2CCCNC(=O)C(Cc2ccccc2)NC(=O)CN(C)C1=O (centres unmarked) [Compound 1]	–	142/1	–
CCCC1NCCOc2ccccc2CCCNC(=O)C(Cc2ccccc2)NC(=O)C(C)N(C)C1=O (centres unmarked) [Compound 4]	10 to 100	3012/1	Ki [1, 6]: 10 to 100 nM; EC50 [2]: 1 to 100 nM
CCCC1NCCOc2ccccc2CCCNC(=O)C(Cc2ccc(O)cc2)NC(=O)CN(C)C1=O (centres unmarked) [compound 7]	–	>100/1	–
CC(C)C1NCCOc2ccccc2C=CCNC(=O)C(Cc2ccccc2)NC(=O)C(C)N(C)C1=O (centres unmarked) [compound 19]	100 to 1000	>1700/1	–
CC[C@H](C)[C@@H]1NCCOc2ccccc2CCCNC(=O)[C@@H](Cc2cccc(Cl)c2)NC(=O)[C@@H](C)N(C)C1=O [compound 24]	0.1 to 10	3039/1	Ki [1, 6]: 0.1 to 10 nM
CCC(C)C1NCCOc2ccccc2CCCNC(=O)C(Cc2cccs2)NC(=O)C(C)N(C)C1=O (centres unmarked) [compound 34]	–	>1000/1	–
CCCC1NCCOc2ccccc2C=CCNC(=O)C(Cc2ccccc2)NC(=O)C(C)N(C)C1=O (centres unmarked) [compound 39]	–	3400/1	–
CCC(C)C1NCCOc2ccccc2C=CCNC(=O)C(Cc2ccccc2)NC(=O)C(C)N(C)C1=O (centres unmarked) [compound 40]	–	>3300/1	–
CCC(C)C1NCCOc2ccccc2CCCNC(=O)C(Cc2ccccc2)NC(=O)C(C)N(CC)C1=O (centres unmarked) [compound 43]	10 to 100	3700/1	Ki [1, 6]: 10 to 100 nM
CCC(C)C1NCCOc2ccccc2CCCNC(=O)C(CC(C)C)NC(=O)C(C)N(C)C1=O (centres unmarked) [compound 176]	–	105/1	–
CCC(C)C1NCCOc2cccnc2CCCNC(=O)C(Cc2ccccc2)NC(=O)C(C)N(C)C1=O (centres unmarked) [compound 177]	–	>100/1	–
CCC(C)C1NCCOc2ccc(C(=O)O)cc2CCCNC(=O)C(Cc2ccccc2)NC(=O)C(C)N(C)C1=O (centres unmarked) [compound 197]	–	100/1	–
C[C@@H]1C(=O)N[C@H](Cc2ccc(O)c(C(C)(C)C)c2)C(=O)NCCCc2ccccc2OCCN[C@@H](C2CC2)C(=O)N1C [compound 311]	10 to 100	21/1	–
O=C1NC/C=C/c2ccccc2OCCN[C@@H](C2CC2)C(=O)NC2(CCCC2)C(=O)N[C@H]1Cc1cccc(Cl)c1 [compound 346]	10 to 100	–	Ki [1, 4]: 10 to 100 nM; EC50 [2]: 1 to 100 nM
CCC(C)C1NCCCCCCCCNC(=O)C(Cc2cccc(Cl)c2)NC(=O)C2(CCCC2)NC1=O (centres unmarked) [compound 363]	–	35/1	–
CC1C(=O)NC(Cc2ccc(F)cc2)C(=O)NCCCc2cc(NS(C)(=O)=O)ccc2OCCNC(C2CC2)C(=O)N1C (centres unmarked) [compound 374]	–	250/1	–
CCC(C)C1NCCOc2ccc(F)cc2CCCNC(=O)C(Cc2cccc(Cl)c2)NC(=O)C2(CCCC2)NC1=O (centres unmarked) [compound 382]	–	74/1	–
CCC(C)C1NCCOc2ccccc2C2CC2CNC(=O)C(Cc2cccc(Cl)c2)NC(=O)C2(CCCC2)NC1=O (centres unmarked) [compound 388]	–	400/1	–
CC1COc2ccccc2CCCNC(=O)C(Cc2ccc(F)cc2)NC(=O)C(C)N(C)C(=O)C(C2CC2)N1 (centres unmarked) [compound 394]	–	1700/1	–
CCC(C)C1NCCOc2ccccc2CCCNC(=O)C(Cc2ccc(O)cc2)NC(=O)C(C)N(C)C1=O (centres unmarked) [compound 445]	10 to 100	–	Ki ([1]; second table titled 3C (compounds 435-449), human ghrelin receptor): 10 to 100 nM; EC50 [2]: 1 to 100 nM
